Data taken from patent EP2112155B1, “Hydrogensulfate salt of 2-acetoxy-5-(a-cyclopropylcarbonyl-2-fluorobenzyl)-4,5,6,7-tetrahydrothieno[3,2-c]pyridine and its preparation” (Sandoz AG, priority 2008, dated 2009).
Counter-ions that a name gives are not always drawn.

Assay: Solubility of various Prasugrel acid addition salts, determined according to European Pharmacopoeia 6.0, 5.11 (2008)
Type: physicochemical
Description: As bioavailability depends, among others, on solubility, an optimal active substance for oral application should show a high solubility in a broad pH-range. […] Table 2: Solubility of various Prasugrel acid addition salts

## CC(=O)Oc1cc2c(s1)CCN(C(C(=O)C1CC1)c1ccccc1F)C2 (stereo not drawn) [Prasugrel hydrochloride]
Acetate buffer pH 4.5
  Solubility: insoluble
Hydrochloric acid medium pH 1.2
  Solubility: sparingly soluble
water
  Solubility: insoluble
